Reference: patent US20090062189A1, “TUMOR SUPPRESSOR PROTEIN AND NUCLEOTIDE ENCODING SAME” (priority 2006, published 2009)

T1: PDZ domain-containing protein 2 (PDZD2), full-length, human (human) (UniProt O15018)
T1 sequence: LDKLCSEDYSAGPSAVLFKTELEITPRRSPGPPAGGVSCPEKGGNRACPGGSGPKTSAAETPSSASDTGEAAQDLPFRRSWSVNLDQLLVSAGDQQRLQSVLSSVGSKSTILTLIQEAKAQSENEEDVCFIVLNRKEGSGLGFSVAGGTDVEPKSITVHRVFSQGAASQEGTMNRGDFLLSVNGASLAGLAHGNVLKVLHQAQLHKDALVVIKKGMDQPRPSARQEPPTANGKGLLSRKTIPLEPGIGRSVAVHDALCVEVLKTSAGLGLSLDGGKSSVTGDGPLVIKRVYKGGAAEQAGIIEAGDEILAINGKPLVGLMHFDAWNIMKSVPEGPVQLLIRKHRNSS


Legend:
DU145 cells = assay: Immunoblotting of PDZD2 in cell lysates and sPDZD2 in conditioned media with anti-PDZD2 antibody; format: cell-based, human; conditions: 10 μM Z-DEVD-FMK, 48 hours, compared to Z-FA-FMK-treated cells
From the text: (§1) Given that cleavage of pro-IL-16 to form the corresponding secretory IL-16 cytokine is mediated by caspase-3, we tested whether or not proteolytic cleavage of full-length PDZD2 to its secreted protein sPDZD2 is caspase-3-dependent in human prostate, breast and liver cancer cells. Human prostate cancer cell lines LNCaP.FGC (CRL-1740), DUI45 (HTB-81), PC-3 (CRL-1435), and 22Rv1 (CRL-2505), breast adenocarcinoma cell line MCF-7 (HTB-22), and hepatocellular carcinoma cell line Hep-G2 (HB-8065) were obtained from American Type Culture Collection. […] Cell lysates in sample buffer (0.2% SDS, 10% glycerol, 0.06 M Tris-HCl (pH 6.8), 100 mM DTT, and 0.01% bromophenol blue) were heated at 95° C. for 5 min. Proteins in the conditioned media were concentrated by 50-fold using YM-10 Centricons (Millipore). Samples (10 μg) were resolved by SDS-PAGE and electroblotted to PVDF membranes (Millipore). The blots were blocked with 5% non-fat milk powder in TBS-T for 1 hour at room temperature and then incubated with rabbit anti-PDZD2 antibody (1: 10,000 dilution) overnight at 4° C. After washing with TBS-T, the blots were incubated with secondary antibodies against rabbit immunoglobulin G (ZYMED Laboratories). Blots were stripped in 25 mM glycine buffer (pH 2.0) for 30 min for re-probing with α-tubulin (1:500 dilution, Santa Cruz Biotechnology). The signals were visualized by enhanced chemiluminescence Western blotting system (Amersham Biosciences) and densitometric scannings of films of the developed blot normalized against α-tubulin were determined.

Hep-G2 cells = assay: as above; format: cell-based, human; conditions: 10 μM Z-DEVD-FMK, 48 hours, compared to Z-FA-FMK-treated cells
From the text: as §1

MCF-7 cells = assay: as above; format: cell-based, human; conditions: 10 μM Z-DEVD-FMK, 48 hours, compared to Z-FA-FMK-treated cells
From the text: as §1

PC-3 cells = assay: as above; format: cell-based, human; conditions: 10 μM Z-DEVD-FMK, 48 hours, compared to Z-FA-FMK-treated cells
From the text: as §1

22Rv1 cells = assay: as above; format: cell-based, human; conditions: 10 μM Z-DEVD-FMK, 48 hours, compared to Z-FA-FMK-treated cells
From the text: as §1

[1] = target: T1, PDZ domain-containing protein 2 (PDZD2), full-length, human (human); assay: cell-based or functional assay

| increase of full-length PDZD2 in cell lysate, 22Rv1 cells, 10 µM Z-DEVD-FMK 48 h vs Z-FA-FMK [1] [fold] | increase of full-length PDZD2 in cell lysate, DU145 cells, 10 µM Z-DEVD-FMK 48 h vs Z-FA-FMK [1] [fold] | increase of full-length PDZD2 in cell lysate, Hep-G2 cells, 10 µM Z-DEVD-FMK 48 h vs Z-FA-FMK [1] [fold] | increase of full-length PDZD2 in cell lysate, MCF-7 cells, 10 µM Z-DEVD-FMK 48 h vs Z-FA-FMK [1] [fold] | increase of full-length PDZD2 in cell lysate, PC-3 cells, 10 µM Z-DEVD-FMK 48 h vs Z-FA-FMK [1] [fold] | reduction of sPDZD2 secretion into conditioned medium, 22Rv1 cells, 10 µM Z-DEVD-FMK 48 h vs Z-FA-FMK [1] [%] | reduction of sPDZD2 secretion into conditioned medium, DU145 cells, 10 µM Z-DEVD-FMK 48 h vs Z-FA-FMK [1] [%] | reduction of sPDZD2 secretion into conditioned medium, Hep-G2 cells, 10 µM Z-DEVD-FMK 48 h vs Z-FA-FMK [1] [%] | reduction of sPDZD2 secretion into conditioned medium, MCF-7 cells, 10 µM Z-DEVD-FMK 48 h vs Z-FA-FMK [1] [%] | reduction of sPDZD2 secretion into conditioned medium, PC-3 cells, 10 µM Z-DEVD-FMK 48 h vs Z-FA-FMK [1] [%] | Molecule | increase of PDZD2 expression (DU145 cells) [fold] | reduction of sPDZD2 secretion into conditioned media (DU145 cells; serum-free) [%] | increase of PDZD2 expression (Hep-G2 cells) [fold] | reduction of sPDZD2 secretion into conditioned media (Hep-G2 cells; serum-free) [%] | increase of PDZD2 expression (MCF-7 cells) [fold] | reduction of sPDZD2 secretion into conditioned media (MCF-7 cells; serum-free) [%] | increase of PDZD2 expression (PC-3 cells) [fold] | reduction of sPDZD2 secretion into conditioned media (PC-3 cells; serum-free) [%] | increase of PDZD2 expression (22Rv1 cells) [fold] | reduction of sPDZD2 secretion into conditioned media (22Rv1 cells; serum-free) [%] |
| --- | --- | --- | --- | --- | --- | --- | --- | --- | --- | --- | --- | --- | --- | --- | --- | --- | --- | --- | --- | --- |
|  |  |  |  |  |  |  |  |  |  | Z-DEVD-FMK | 3 | 40 | 4.1 | 52 | 3.5 | 57 | 2 | 28 | 4.4 | 44 |
| 4.4 | 3 | 4.1 | 3.5 | 2 | 44 | 40 | 52 | 57 | 28 | caspase-3 (enzyme, human, UniProt P42574 29-277, looked up) SGISLDNSYKMDYPEMGLCIIINNKNFHKSTGMTSRSGTDVDAANLRETFRNLKYEVRNKNDLTREEIVELMRDVSKEDHSKRSSFVCVLLSHGEEGIIFGTNGPVDLKKITNFFRGDRCRSLTGKPKLFIIQACRGTELDCGIETDSGVDDDMACHKIPVEADFLYAYSTAPGYYSWRNSKDGSWFIQSLCAMLKQYADKLEFMHILTRVNRKVATEFESFSFDATFHAKKQIPCIVSMLTKELYFYH |  |  |  |  |  |  |  |  |  |  |
